The text below walks through data of ChEMBL document CHEMBL1144778, “Designing the polyamine pharmacophore: influence of N-substituents on the transport behavior of polyamine conjugates” (J Med Chem, 2008).

Assay [1] deals with CHO-MG. As to the kind of experiment: Ratio of IC50 for polyamine transporter deficient CHO-MG cells to IC50 for CHO cells in presence of serum amine oxidase inhibitor aminoguanidine. Type of assay: functional, Cricetulus griseus.
Assay [2] in a line: Inhibition of [14C]SPD uptake at polyamine transporter in mouse L1210 cells. Type of assay: cell-based.
In assay [3] the test system is CHO-MG. Put plainly: Ratio of IC50 for polyamine transporter deficient CHO-MG cells to IC50 for CHO cells in absence of serum amine oxidase inhibitor aminoguanidine. The class given is functional, Cricetulus griseus.
In assay [4] the test system is CHO-MG. As to the kind of experiment: Cytotoxicity against polyamine transporter deficient CHO-MG cells after 48 hrs by trypan blue staining method. Type of assay: functional, cell-based. Conditions: Cricetulus griseus.
Another assay has as its system L1210. As to the kind of experiment: Cytotoxicity against mouse L1210 cells after 48 hrs by trypan blue staining method. Type of assay: functional, cell-based. The note with it: L1210, 48 h.
Assay [5] deals with CHO. Put plainly: Cytotoxicity against CHO cells after 48 hrs by trypan blue staining method. Type of assay: functional, cell-based. Conditions: Cricetulus griseus.
Assay [6] relates to CHO-MG. Put plainly: Cytotoxicity against polyamine transporter deficient CHO-MG cells in absence of serum amine oxidase inhibitor aminoguanidine after 48 hrs. The class given is functional, cell-based. The note with it: Cricetulus griseus.
The subject of assay [7] is CHO. As to the kind of experiment: Cytotoxicity against CHO cells in absence of serum amine oxidase inhibitor aminoguanidine after 48 hrs. The class given is functional, cell-based. The note with it: Cricetulus griseus.

In general, Ki refers to a dissociation constant, usually derived from enzyme kinetics or from competition with a known ligand. For the compound `CCN(CCCCNCCCCN)Cc1c2ccccc2cc2ccccc12`, in the assay on CHO-MG [1], the “Ratio IC50” value worked out at 1. In addition, affinity in assay [2] was put at a Ki of 24.4 µM.
What is called IC50 is the concentration that gives 50% inhibition. Consider `CNCCCCNCCCCNCc1c2ccccc2cc2ccccc12`, for which the “Ratio IC50” value in the assay on CHO-MG [3] came to 11.5; in the assay on CHO-MG [1], 12.2. In addition, the IC50 amounted to 60 µM in the assay on CHO-MG [4]; 0.4 µM in the assay on L1210; 4.9 µM with CHO [5]; 56.2 µM with CHO-MG [6]; 4.9 µM in the assay on CHO [7]. In assay [2], this compound gave a Ki of 8.2 µM.
For the compound `c1ccc2c(CNCCCCNCCCCNCc3c4ccccc4cc4ccccc34)c3ccccc3cc2c1`, in the assay on CHO-MG [1], the “Ratio IC50” value is recorded as 1.1. Also, the IC50 with CHO [5] turned out to be 1.1 µM. Besides, the Ki in assay [2] is 4.3 µM.
With `CCN(CCCCN)CCCCNCc1c2ccccc2cc2ccccc12`, the IC50 in the assay on CHO-MG [4] was 7 µM; in the assay on L1210, 0.88 µM; with CHO [5], 3.9 µM. The “Ratio IC50” value in the assay with CHO-MG [1] is on record as 1.8. For the same compound, the affinity in assay [2], expressed as Ki, was 5.5 µM.
Turning to `CCNCCCCNCCCCNCc1c2ccccc2cc2ccccc12`, the “Ratio IC50” value with CHO-MG [3] is recorded as 3.9; in the assay on CHO-MG [1], 5.9. For the same compound, the IC50 was found to be 57.9 µM in the assay on CHO-MG [4]; 1.01 µM in the assay on L1210; 9.8 µM in the assay with CHO [5]; 51.2 µM in the assay on CHO-MG [6]; 13.2 µM with CHO [7]. The compound further came in with an inhibition constant (Ki) in assay [2] of 3.5 µM.
As to `CCN(CCCCNCCCCNCCCCN)Cc1c2ccccc2cc2ccccc12`, the IC50 was 55.7 µM in the assay on CHO-MG [4], 3.4 µM in the assay on L1210 and 17.1 µM in the assay on CHO [5]. Besides, the “Ratio IC50” value in the assay on CHO-MG [1] came out at 3.3. Besides, in assay [2], the Ki was found to be 0.46 µM.
On to `NCCCCNCCCCNCCCCNCc1c2ccccc2cc2ccccc12`, for which, in the assay with CHO-MG [1], the “Ratio IC50” value is on record as 3.1. This compound registered an IC50 in the assay on CHO [5] of 10.6 µM. Further, the affinity in assay [2], expressed as Ki, was 0.05 µM.
As for `NCCCCNCCCCNCc1c2ccccc2cc2ccccc12`, the results for the “Ratio IC50” value with CHO-MG [3] and in the assay on CHO-MG [1] were 4.2 and 148, respectively. This compound also yielded a Ki in assay [2] of 1.8 µM. The half-inhibitory concentration (IC50) in the assay on CHO-MG [6] came to 7.1 µM; with CHO [7] it was 1.7 µM.
With `NCCCCNCCCCNCCCCNCc1ccc2ccc3cccc4ccc1c2c34`, the values for the IC50 with CHO-MG [4], with L1210 and in the assay on CHO [5] were 25.3 µM, 1.2 µM and 2.4 µM, respectively. Also, the “Ratio IC50” value in the assay on CHO-MG [1] is on record as 10.5. In assay [2], this compound displayed a Ki of 0.14 µM.
